In PubChem BioAssay (NCI) one finds TGI data, which are given here for 7 compounds.

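Grown in 96-well plates, cells were treated for 48 hours with each compound at five concentrations. Insufficient inhibition: endpoint recorded as highest concentration tested. At the TGI there is no net growth.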

Test systems include SF-295 CNS; NCI/ADR-RES ovarian; MDA-MB-435; HCT-15 colon; SK-MEL-2 melanoma; SW-620 colon; UACC-257 melanoma; PC-3 prostate; OVCAR-4 ovarian; MALME-3M melanoma; HCT-116 colon; COLO 205 colon; UO-31 renal; K-562 leukemia; MCF7 breast; BT-549 breast; MOLT-4 leukemia; 786-0 renal; NCI-H226 lung; HOP-62 NSCLC.
Common to all, as to assay: inhibition of tumour cell growth, NCI panel, 48 h

`NS(=O)(=O)c1ccc(NCc2cccc3c(=O)c4ccc(Cl)cc4oc23)cc1`: the TGI in the assay with SF-295 CNS, in the assay with NCI/ADR-RES ovarian, in the assay on MDA-MB-435, in the assay on HCT-15 colon, with SK-MEL-2 melanoma and in the assay on SW-620 colon was over 100 µM each time. In addition, the TGI is over 100 µM with UACC-257 melanoma; over 100 µM in the assay on PC-3 prostate; over 100 µM with OVCAR-4 ovarian; over 66.5 µM in the assay with MALME-3M melanoma; over 100 µM in the assay with HCT-116 colon; over 100 µM with COLO 205 colon. The TGI in the assay on UO-31 renal was over 93.2 µM; with K-562 leukemia, over 100 µM; with MCF7 breast, over 67 µM; in the assay with BT-549 breast it was over 96.7 µM; with MOLT-4 leukemia, over 100 µM; in the assay on 786-0 renal it was over 100 µM. Besides, the TGI in the assay on NCI-H226 lung and with HOP-62 NSCLC was over 100 µM throughout.
As to `COc1cc(N(CCC#N)CCC#N)ccc1/C(N=Nc1cccc([N+](=O)[O-])c1)=N\NC(=O)c1ccc(C)cc1`, the TGI in the assay with SF-295 CNS, with NCI/ADR-RES ovarian, in the assay on MDA-MB-435, in the assay on HCT-15 colon, in the assay with SK-MEL-2 melanoma and with SW-620 colon was over 100 µM throughout. For the same compound, the TGI is 60.9 µM with UACC-257 melanoma; over 100 µM with PC-3 prostate; over 100 µM in the assay with OVCAR-4 ovarian; over 100 µM with MALME-3M melanoma; over 100 µM in the assay with HCT-116 colon; over 100 µM in the assay on COLO 205 colon. The TGI in the assay on UO-31 renal, with K-562 leukemia, in the assay on MCF7 breast, with BT-549 breast, in the assay with MOLT-4 leukemia and in the assay on 786-0 renal was over 100 µM throughout. Also, the TGI in the assay on NCI-H226 lung and in the assay with HOP-62 NSCLC was over 100 µM throughout.
Turning to `CCOC(=O)c1sc(N)nc1N1CCCC1`, the TGI with SF-295 CNS, in the assay on NCI/ADR-RES ovarian, with MDA-MB-435, with HCT-15 colon, in the assay on SK-MEL-2 melanoma and with SW-620 colon was over 100 µM each time. Further, the TGI in the assay on UACC-257 melanoma, in the assay with PC-3 prostate, in the assay on OVCAR-4 ovarian, in the assay on MALME-3M melanoma, in the assay on HCT-116 colon and in the assay with COLO 205 colon was over 100 µM throughout. The TGI in the assay on UO-31 renal, in the assay with K-562 leukemia, in the assay with MCF7 breast, in the assay with BT-549 breast, in the assay with MOLT-4 leukemia and in the assay with 786-0 renal was over 100 µM in each case. In addition, the TGI with NCI-H226 lung and in the assay on HOP-62 NSCLC was over 100 µM throughout.
With `CCOC(=O)c1cn2c(n1)sc1cc([N+](=O)[O-])ccc12`, the TGI in the assay on SF-295 CNS, in the assay with NCI/ADR-RES ovarian, in the assay on MDA-MB-435, in the assay on HCT-15 colon, in the assay on SK-MEL-2 melanoma and in the assay on SW-620 colon was over 100 µM in each case. The TGI in the assay with UACC-257 melanoma, in the assay on PC-3 prostate, in the assay with OVCAR-4 ovarian, in the assay with MALME-3M melanoma, in the assay with HCT-116 colon and in the assay with COLO 205 colon was over 100 µM each time. Also, the TGI in the assay with UO-31 renal, in the assay on K-562 leukemia, in the assay on MCF7 breast, in the assay on BT-549 breast, in the assay on MOLT-4 leukemia and in the assay with 786-0 renal was over 100 µM throughout. For the same compound, the TGI in the assay on NCI-H226 lung and in the assay on HOP-62 NSCLC was over 100 µM each time.
Turning to `NS(=O)(=O)c1ccc(NNc2c3ccccc3nc3c(C(=O)Nc4ccc(S(N)(=O)=O)cc4)cccc23)cc1`, the TGI in the assay with SF-295 CNS was over 100 µM; in the assay on NCI/ADR-RES ovarian, over 100 µM; with MDA-MB-435, over 100 µM; with HCT-15 colon, over 100 µM; in the assay on SK-MEL-2 melanoma, 54.4 µM; in the assay on SW-620 colon it was over 100 µM. Further, the TGI in the assay on UACC-257 melanoma is over 100 µM; in the assay on PC-3 prostate, over 100 µM; in the assay with OVCAR-4 ovarian, 75.1 µM; in the assay on MALME-3M melanoma, 99.8 µM; in the assay with HCT-116 colon it was over 100 µM; in the assay with COLO 205 colon, over 100 µM. For the same compound, the TGI in the assay with UO-31 renal is over 100 µM; with K-562 leukemia, 62.1 µM; in the assay on MCF7 breast, over 100 µM; in the assay with BT-549 breast, 54.7 µM; in the assay with MOLT-4 leukemia it was 49.6 µM; in the assay with 786-0 renal it was over 100 µM. Further, the TGI with NCI-H226 lung and in the assay on HOP-62 NSCLC was over 100 µM each time.
For `COc1ccc(Cc2nc3cc(C(F)(F)F)ccc3n2C[C@@H]2CCCN3CCCCC23)cc1` (stereo not given in full), the TGI in the assay on SF-295 CNS was 12.3 µM; with NCI/ADR-RES ovarian, 30.7 µM; in the assay with MDA-MB-435, 26.8 µM; in the assay with HCT-15 colon it was 30.8 µM; in the assay on SK-MEL-2 melanoma, 30.1 µM; in the assay on SW-620 colon it was over 62.1 µM. In addition, the TGI in the assay on UACC-257 melanoma is 6.77 µM; in the assay with PC-3 prostate it was 24 µM; with OVCAR-4 ovarian, 25.1 µM; with MALME-3M melanoma it was 8.88 µM; in the assay with HCT-116 colon, 20.4 µM; in the assay on COLO 205 colon it was 18.9 µM. For the same compound, the TGI with UO-31 renal was 0.166 µM; with K-562 leukemia it was over 64.8 µM; in the assay on MCF7 breast, 26.2 µM; in the assay with BT-549 breast, 28.5 µM; in the assay on MOLT-4 leukemia it was 31.7 µM; in the assay with 786-0 renal, 20.3 µM. For the same compound, the figures for the TGI in the assay on NCI-H226 lung and in the assay with HOP-62 NSCLC were 37 µM and 23.2 µM, respectively.
For the compound `C[C@H]1CC(=O)C[C@@H]2CC[C@@H]3[C@H](CC[C@]4(C)C(OC(=O)c5cccc6c(=O)c7ccccc7[nH]c56)CC[C@@H]34)[C@]21C` (stereo not given in full), the TGI in the assay on SF-295 CNS is over 100 µM; in the assay on NCI/ADR-RES ovarian, 61 µM; in the assay with MDA-MB-435 it was over 100 µM; in the assay on HCT-15 colon it was over 100 µM; with SK-MEL-2 melanoma, over 100 µM; in the assay with SW-620 colon, over 100 µM. The TGI was over 100 µM in the assay on UACC-257 melanoma; over 100 µM in the assay on PC-3 prostate; over 100 µM in the assay on OVCAR-4 ovarian; over 100 µM with MALME-3M melanoma; over 100 µM in the assay with HCT-116 colon; 62.9 µM in the assay with COLO 205 colon. The TGI was 95.1 µM with UO-31 renal; over 100 µM with K-562 leukemia; over 100 µM in the assay with MCF7 breast; over 100 µM with BT-549 breast; 30.2 µM with MOLT-4 leukemia; over 100 µM in the assay on 786-0 renal. Further, the TGI with NCI-H226 lung and in the assay with HOP-62 NSCLC was over 100 µM each time.
